US20100210589A1, “METHOD FOR IMPROVING HEPATIC FUNCTION” (Kabushiki Kaisha Kayashibara Seibutsu Kagaku Kenkyujo, priority 2004, published 2010)

Test system: golden hamsters
Assay: Administration test of α-glucosyl-hesperidin on hamsters (serum GOT and GPT, cholesterol-supplemented feed)
Assay type: in vivo, golden hamster
Details: compared with hesperidin at equal molar dose
Method: The animal experiment using hamsters was performed to investigate the influences of the intake of α-glucosyl-hesperidin on hepatic functions.
A group of five golden hamsters of five weeks old was fed on liberal amount of “NMF Lab Animal Diet Powder” (produced by Oriental Yeast Co., Ltd.) with the administration of “αG-HESPERIDINPS®” (a powdery α-glucosyl-hesperidin containing […] of α-glucosyl-hesperidin, commercialized by Hayashibara Shoji, Inc.) dissolved in distilled water. α-Glucosyl-hesperidin was administered to the hamsters through a stomach sonde at a dose of 0.25 mmole (193 mg)/kg/body weight every day. After two-week administrations of α-glucosyl-hesperidin, the hamsters were fed for additional three weeks in the same way as described above except that their feed was supplemented with 1% by weight of cholesterol. At four hours after the final administrations, the hamsters were anesthetized and underwent laparotomy, and their large-venous blood samples were taken. After the separation of the hamsters' serums by a conventional method, the levels of GOT and GPT were measured. […] The other group was fed on liberal amount of “NMF Lab Animal Diet Powder” with no administration of the test articles and their blood samples were taken in the same way as describe above, and the serum levels of GOT and GPT were measured to obtain the data before the administrations.

COc1ccc(C2CC(=O)c3c(O)cc(O[C@@H]4OC(CO[C@@H]5OC(C)[C@H](O)C(O)C5O)[C@@H](COC[C@H]5OC(CO)[C@@H](O)C(O)C5O)C(O)C4O)cc3O2)cc1O (stereo partly drawn) [α-Glucosyl-hesperidin, α-glucosyl-hesperidin]
effect for keeping hepatic-function indexes (serum GOT, GPT) at a lower level: greater effect than that of hesperidin
